Measured values from patent US12577228B2, “Dihydrocyclopenta-isoquinoline-sulfonamide derivatives compounds” (UCB Biopharma SRL, priority 2019, dated 2026).

Target: T1, IgE-Tb / soluble IgE receptor FcεRIα with a Y131A mutation (Homo sapiens, UniProt P01854, N146Q/N252Q)
T1 construct: fused on or other part: Terbium chelate (LanthaScreen amine-reactive) on IgE-Fc; Alexa Fluor 488 hydrazide on the oxidised glycans of sFcεRIα; Both are labels and no part of the key
Experiment: in vitro FRET assay: binding of IgE-Tb to receptor FcεRIα-Y131A-AF488 and its inhibition by compounds
Settings: 5 nM IgE-Tb, 25 nM FcεRIα-Y131A-AF488, 2 hours at room temperature; read-out: FRET IC50 range

T1 sequence (P01854 104-427 N146Q/N252Q): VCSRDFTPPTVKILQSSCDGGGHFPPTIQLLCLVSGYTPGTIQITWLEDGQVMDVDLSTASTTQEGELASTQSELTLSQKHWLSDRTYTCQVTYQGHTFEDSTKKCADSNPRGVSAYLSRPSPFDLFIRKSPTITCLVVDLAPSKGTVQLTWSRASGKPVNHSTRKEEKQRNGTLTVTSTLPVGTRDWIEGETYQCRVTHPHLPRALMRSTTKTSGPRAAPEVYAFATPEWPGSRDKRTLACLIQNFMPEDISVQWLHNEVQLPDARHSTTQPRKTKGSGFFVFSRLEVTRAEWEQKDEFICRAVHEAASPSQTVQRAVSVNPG
T1 sequence (P12319 26-201 Y156A partner): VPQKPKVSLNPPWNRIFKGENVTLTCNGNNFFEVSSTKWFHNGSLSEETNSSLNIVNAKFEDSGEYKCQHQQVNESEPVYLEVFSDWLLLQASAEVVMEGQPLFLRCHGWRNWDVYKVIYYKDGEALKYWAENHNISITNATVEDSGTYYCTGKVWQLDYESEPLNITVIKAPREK

| Structure (SMILES) | IC50 [nM] |
| --- | --- |
| CC(C)(F)CNS(=O)(=O)c1c2c(cc3cnc(C4CC4)cc13)CC(Nc1cncc3nccn13)C2 (stereo not shown) [Example 109, 3-cyclopropyl-N-(2-fluoro-2-methylpropyl)-7-(imidazo[1,2-a]pyrazin-5-ylamino)-7,8-dihydro-6H-cyclopenta[g]isoquinoline-5-sulfonamide] | 10 to 50 |
| CC(=O)NS(=O)(=O)c1ccc(N[C@@H]2Cc3cc4cnc(C5CC5)cc4c(S(=O)(=O)NCC(C)(C)F)c3C2)cn1 [Example 95, N-[5-[[(7R)-3-cyclopropyl-5-[(2-fluoro-2-methylpropyl)sulfamoyl]-7,8-dihydro-6H-cyclopenta[g]isoquinolin-7-yl]amino]pyridin-2-yl]sulfonylacetamide] | 50 to 100 |
| CC(C)(F)CNS(=O)(=O)c1c2c(cc3cnc(C4CC4)cc13)C[C@@H](NC1=CC(=O)COC1)C2 [Example 127, (7R)-3-cyclopropyl-N-(2-fluoro-2-methylpropyl)-7-[(5-oxo-2H-pyran-3-yl)amino]-7,8-dihydro-6H-cyclopenta[g]isoquinoline-5-sulfonamide] | 100 to 2000 |
| CC(C)(F)CNS(=O)(=O)c1c2c(cc3cnc(C4CC4)cc13)C[C@@H](Nc1ccc(C(N)=O)nc1)C2 [Example 11, 5-[[(7R)-3-cyclopropyl-5-[(2-fluoro-2-methylpropyl)sulfamoyl]-7,8-dihydro-6H-cyclopenta[g]isoquinolin-7-yl]amino]pyridine-2-carboxamide] | 10 to 50 |
| CC(C)CNS(=O)(=O)c1c2c(cc3cnc(C4CC4)cc13)CC(C(=O)NCC(C)(C)C)C2 (stereo not shown) [Example 54, 3-cyclopropyl-N-(2,2-dimethylpropyl)-5-(2-methylpropylsulfamoyl)-7,8-dihydro-6H-cyclopenta[g]isoquinoline-7-carboxamide] | 10 to 50 |
| CC(C)(F)CNS(=O)(=O)c1c2c(cc3cnc(C4CC4)cc13)CC(c1ccno1)C2 (stereo not shown) [Example 79, 3-cyclopropyl-N-(2-fluoro-2-methylpropyl)-7-(1,2-oxazol-5-yl)-7,8-dihydro-6H-cyclopenta[g]isoquinoline-5-sulfonamide] | 100 to 2000 |
| CC(C)(F)CNS(=O)(=O)c1c2c(cc3cnc(C4CC4)cc13)CC(Nc1cncc(C#N)c1)C2 (stereo not shown) [Example 122, 7-[(5-cyanopyridin-3-yl)amino]-3-cyclopropyl-N-(2-fluoro-2-methylpropyl)-7,8-dihydro-6H-cyclopenta[g]isoquinoline-5-sulfonamide] | 100 to 2000 |
| COc1ccc(NC2Cc3cc4cnc(C5CC5)cc4c(S(=O)(=O)NCC(C)(C)F)c3C2)nn1 (stereo not shown) [Example 28, 3-cyclopropyl-N-(2-fluoro-2-methylpropyl)-7-[(6-methoxypyridazin-3-yl)amino]-7,8-dihydro-6H-cyclopenta[g]isoquinoline-5-sulfonamide] | 10 to 50 |
| Cn1ncc(NC2Cc3cc4c(F)nc(C5CC5)cc4c(S(=O)(=O)NCC(C)(C)F)c3C2)cc1=O (stereo not shown) [Example 29, 3-cyclopropyl-1-fluoro-N-(2-fluoro-2-methyl-propyl)-7-[(1-methyl-6-oxo-pyridazin-4-yl)amino]-7,8-dihydro-6H-cyclopenta[g]isoquinoline-5-sulfonamide] | 10 to 50 |
| CC1(CNS(=O)(=O)c2c3c(cc4cnc(C5CC5)cc24)CC(C(=O)Nc2cccnc2)C3)COC1 (stereo not shown) [Example 9, 3-cyclopropyl-5-[(3-methyloxetan-3-yl)methylsulfamoyl]-N-pyridin-3-yl-7,8-dihydro-6H-cyclopenta[g]isoquinoline-7-carboxamide] | 100 to 2000 |
| CC(C)CNS(=O)(=O)c1c2c(cc3cnc(C4CC4)cc13)CCC2O (stereo not shown) [Example 48, 3-cyclopropyl-6-hydroxy-N-(2-methylpropyl)-7,8-dihydro-6H-cyclopenta[g]isoquinoline-5-sulfonamide] | 100 to 2000 |
| CC(C)(F)CNS(=O)(=O)c1c2c(cc3cnc(C4CC4)cc13)C[C@@H](Nc1cncc(Oc3cc[nH]c(=O)c3)c1)C2 [Example 75, (7R)-3-cyclopropyl-N-(2-fluoro-2-methylpropyl)-7-[[5-[(2-oxo-1H-pyridin-4-yl)oxy]pyridin-3-yl]amino]-7,8-dihydro-6H-cyclopenta[g]isoquinoline-5-sulfonamide] | 10 to 50 |
| CC(C)(F)CNS(=O)(=O)c1c2c(cc3cnc(C4CC4)cc13)CC(NC(=O)Cc1ccccc1)C2 (stereo not shown) [Example 87, N-[3-cyclopropyl-5-[(2-fluoro-2-methylpropyl)sulfamoyl]-7,8-dihydro-6H-cyclopenta[g]isoquinolin-7-yl]-2-phenylacetamide] | 50 to 100 |
| Cc1nnc(-c2ccc(NC3Cc4cc5nnc(C6CC6)cc5c(S(=O)(=O)NCC(C)(C)F)c4C3)cn2)o1 (stereo not shown) [Example 66, 3-cyclopropyl-N-(2-fluoro-2-methylpropyl)-7-[[6-(5-methyl-1,3,4-oxadiazol-2-yl)pyridin-3-yl]amino]-7,8-dihydro-6H-cyclopenta[g]cinnoline-5-sulfonamide] | 10 to 50 |
| CC(C)(F)CNS(=O)(=O)c1c2c(cc3cnc(C4CC4)cc13)CN(c1cccnc1N)C2 [Example 51, 2-(2-aminopyridin-3-yl)-7-cyclopropyl-N-(2-fluoro-2-methylpropyl)-1,3-dihydropyrrolo[3,4-g]isoquinoline-9-sulfonamide] | 100 to 2000 |
| CC(C)(F)CNS(=O)(=O)c1c2c(cc3cnc(C4CC4)cc13)C[C@@H](Nc1cnc(C(=O)O)c3ccccc13)C2 [Example 138, lithium; 4-[[(7R)-3-cyclopropyl-5-[(2-fluoro-2-methyl-propyl)sulfamoyl]-7,8-dihydro-6H-cyclopenta[g]isoquinolin-7-yl]amino]isoquinoline-1-carboxylate] | 50 to 100 |
| Cc1nnc(-n2ccc(N[C@@H]3Cc4cc5cnc(C6CC6)cc5c(S(=O)(=O)NCC(C)(C)F)c4C3)cc2=O)o1 [Example 92, (7R)-3-cyclopropyl-N-(2-fluoro-2-methylpropyl)-7-[[1-(5-methyl-1,3,4-oxadiazol-2-yl)-2-oxopyridin-4-yl]amino]-7,8-dihydro-6H-cyclopenta[g]isoquinoline-5-sulfonamide] | 10 to 50 |
| CC(=O)Nc1c2c(c(S(=O)(=O)NCC(C)C)c3cc(C4CC4)ncc13)CCC2 [Example 22, N-[3-cyclopropyl-5-(2-methylpropylsulfamoyl)-7,8-dihydro-6H-cyclopenta[g]isoquinolin-9-yl]acetamide] | 100 to 2000 |
| Cn1ccc(-c2ccc(N[C@@H]3Cc4cc5cnc(C6CC6)cc5c(S(=O)(=O)NCC(C)(C)F)c4C3)cn2)n1 [Example 108, (7R)-3-cyclopropyl-N-(2-fluoro-2-methylpropyl)-7-[[6-(1-methylpyrazol-3-yl)pyridin-3-yl]amino]-7,8-dihydro-6H-cyclopenta[g]isoquinoline-5-sulfonamide] | 10 to 50 |
